target: T1, ER (Homo sapiens, UniProt P03372); assay: ER degradation activity, in-cell western blot analysis in T47D cells; format: cell-based; details: 16 hours, Table A does not say which cell line (T47D or MCF7), read-out: Potency (DC50)
T1 construct: host or cells: T47D and MCF7 human breast cancer cells
T1 sequence (P03372 1-595): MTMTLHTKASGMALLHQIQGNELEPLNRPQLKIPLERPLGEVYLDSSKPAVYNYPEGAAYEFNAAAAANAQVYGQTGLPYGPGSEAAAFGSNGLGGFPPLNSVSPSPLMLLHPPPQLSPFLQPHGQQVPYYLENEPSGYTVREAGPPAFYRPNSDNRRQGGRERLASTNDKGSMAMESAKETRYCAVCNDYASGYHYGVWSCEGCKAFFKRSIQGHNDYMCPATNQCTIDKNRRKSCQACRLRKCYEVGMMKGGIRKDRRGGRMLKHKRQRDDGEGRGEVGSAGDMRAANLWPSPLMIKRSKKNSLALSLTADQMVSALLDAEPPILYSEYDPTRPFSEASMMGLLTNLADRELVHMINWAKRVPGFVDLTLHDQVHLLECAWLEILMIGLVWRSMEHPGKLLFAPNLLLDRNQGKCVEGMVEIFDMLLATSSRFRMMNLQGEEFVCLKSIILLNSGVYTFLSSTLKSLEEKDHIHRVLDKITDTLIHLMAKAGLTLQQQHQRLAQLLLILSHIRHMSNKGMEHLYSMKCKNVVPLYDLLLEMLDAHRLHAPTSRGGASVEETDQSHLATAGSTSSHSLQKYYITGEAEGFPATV
Procedure, shortened: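 T47D cells cultured in DMEM with 10% FBS, treated with compounds (final 0.5% DMSO) for 16 h. ER level measured by in-cell western with anti-rabbit-680/anti-mouse-800 near-infrared detection. Relative ER percentage calculated against untreated and DMSO-treated wells set as 100%.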

Compound | DC50
C[C@@H]1Cc2c([nH]c3ccccc23)[C@@H](c2c(F)cc(C(=O)N3CCC4(CCC(CN5Cc6cc7c(cc6C5)C(=O)N(C5CCC(=O)NC5=O)C7=O)CC4)CC3)cc2F)N1CC(F)F (stereo partly drawn) [E 378, 6-((3-(4-((1R,3R)-2-(2,2-difluoroethyl)-3-methyl-2,3,4,9-tetrahydro-1H-pyrido[3,4-b]indol-1-yl)-3,5-difluorobenzoyl)-3-azaspiro[5.5]undecan-9-yl)methyl)-2-(2,6-dioxopiperidin-3-yl)-6,7-dihydropyrrolo[3,4-f]isoindole-1,3(2H,5H)-dione] | > 100 nM
C[C@@H]1Cc2c([nH]c3ccccc23)[C@@H](c2c(F)cc(CN3CCC4(CCC(C(=O)N5Cc6cc7c(cc6C5)C(=O)N(C5CCC(=O)NC5=O)C7=O)CC4)CC3)cc2F)N1CC(F)F (stereo partly drawn) [E 382, 6-(3-(4-((1R,3R)-2-(2,2-difluoroethyl)-3-methyl-2,3,4,9-tetrahydro-1H-pyrido[3,4-b]indol-1-yl)-3,5-difluorobenzyl)-3-azaspiro[5.5]undecane-9-carbonyl)-2-(2,6-dioxopiperidin-3-yl)-6,7-dihydropyrrolo[3,4-f]isoindole-1,3(2H,5H)-dione] | > 100 nM
C[C@@H]1Cc2c([nH]c3ccccc23)[C@@H](c2c(F)cc(N3CCC(N4CC(CC(=O)N5Cc6cc7c(cc6C5)C(=O)N(C5CCC(=O)NC5=O)C7)C4)CC3)cc2F)N1CC(F)F (stereo partly drawn) [E 56, 3-(6-(2-(1-(1-(4-((1R,3R)-2-(2,2-difluoroethyl)-3-methyl-2,3,4,9-tetrahydro-1H-pyrido[3,4-b]indol-1-yl)-3,5-difluorophenyl)piperidin-4-yl)azetidin-3-yl)acetyl)-1-oxo-3,5,6,7-tetrahydropyrrolo[3,4-f]isoindol-2(1H)-yl)piperidine-2,6-dione] | 10 to 100 nM
O=C1CCC(N2C(=O)c3cc4c(cc3C2=O)CN(CC(=O)N2CCC3(CC2)CCN(c2ccc([C@@H]5c6ccc(O)cc6CC[C@@H]5c5ccc(F)cc5)cc2)CC3)CC4)C(=O)N1 (mixture of isomers) [E 165, rac-2-(2,6-dioxopiperidin-3-yl)-6-(2-(9-(4-((1R,2S)-2-(4-fluorophenyl)-6-hydroxy-1,2,3,4-tetrahydronaphthalen-1-yl)phenyl)-3,9-diazaspiro[5.5]undecan-3-yl)-2-oxoethyl)-5,6,7,8-tetrahydro-1H-pyrrolo[3,4-g]isoquinoline-1,3(2H)-dione] | 10 to 100 nM
C[C@@H]1Cc2c([nH]c3ccccc23)[C@@H](c2c(F)cc(N3CCC(CN4CCC(N5Cc6cc7c(cc6C5)C(=O)N(C5CCC(=O)NC5=O)C7=O)CC4)CC3)cc2F)N1CC(F)F (stereo partly drawn) [E 251, 6-(1-((1-(4-((1R,3R)-2-(2,2-difluoroethyl)-3-methyl-2,3,4,9-tetrahydro-1H-pyrido[3,4-b]indol-1-yl)-3,5-difluorophenyl)piperidin-4-yl)methyl)piperidin-4-yl)-2-(2,6-dioxopiperidin-3-yl)-6,7-dihydropyrrolo[3,4-f]isoindole-1,3(2H,5H)-dione] | < 10 nM
C[C@@H]1Cc2c([nH]c3ccccc23)[C@@H](c2c(F)cc(N3CCC4(CCN(CC(=O)N5Cc6cc7c(cc6C5)C(=O)N(C5CCC(=O)NC5=O)C7)C4)C3)cc2F)N1CC(F)F (stereo partly drawn) [E 75, 3-(6-(2-(7-(4-((1R,3R)-2-(2,2-difluoroethyl)-3-methyl-2,3,4,9-tetrahydro-1H-pyrido[3,4-b]indol-1-yl)-3,5-difluorophenyl)-2,7-diazaspiro[4.4]nonan-2-yl)acetyl)-1-oxo-3,5,6,7-tetrahydropyrrolo[3,4-f]isoindol-2(1H)-yl)piperidine-2,6-dione] | 10 to 100 nM
O=C1CCC(N2C(=O)c3cc4c(cc3C2=O)CN(c2ncc(CN3CC(Oc5ccc([C@@H]6c7ccc(O)cc7CC[C@@H]6c6ccccc6)cc5)C3)cn2)C4)C(=O)N1 (stereo partly drawn) [E327, 2-(2,6-dioxopiperidin-3-yl)-6-(5-((3-(4-((1R,2S)-6-hydroxy-2-phenyl-1,2,3,4-tetrahydronaphthalen-1-yl)phenoxy)azetidin-1-yl)methyl)pyrimidin-2-yl)-6,7-dihydropyrrolo[3,4-f]isoindole-1,3(2H,5H)-dione] | > 100 nM
C[C@@H]1Cc2cc(O)ccc2[C@@H](c2c(F)cc(N3CCC(CN4CC(N5Cc6cc7c(cc6C5)C(=O)N(C5CCC(=O)NC5=O)C7=O)C4)CC3)cc2F)N1CC(F)F (stereo partly drawn) [E 47, 6-(1-((1-(4-((1S,3R)-2-(2,2-difluoroethyl)-6-hydroxy-3-methyl-1,2,3,4-tetrahydroisoquinolin-1-yl)-3,5-difluorophenyl)piperidin-4-yl)methyl)azetidin-3-yl)-2-(2,6-dioxopiperidin-3-yl)-6,7-dihydropyrrolo[3,4-f]isoindole-1,3(2H,5H)-dione] | > 100 nM

Other lines, results leading:

DC50 | Compound
> 100 nM | O=C1CCC(N2C(=O)c3cc4c(cc3C2=O)CN(C(=O)CN2CCC3(CC2)CCN(c2ccc([C@@H]5c6ccc(O)cc6CC[C@@H]5c5ccccc5)cc2F)C3)C4)C(=O)N1 (mixture of isomers) [E 154, Rac-2-(2,6-dioxopiperidin-3-yl)-6-(2-(2-(2-fluoro-4-((1R,2S)-6-hydroxy-2-phenyl-1,2,3,4-tetrahydronaphthalen-1-yl)phenyl)-2,8-diazaspiro[4.5]decan-8-yl)acetyl)-6,7-dihydropyrrolo[3,4-f]isoindole-1,3(2H,5H)-dione]
< 10 nM | O=C1CCC(N2Cc3cc4c(cc3C2=O)CN(C(=O)[C@H]2CC[C@H](N3CC(Oc5ccc([C@@H]6c7ccc(O)cc7CC[C@@H]6c6ccccc6)cc5)C3)CC2)C4)C(=O)N1 (single isomer, unassigned) [E 357]
< 10 nM | C[C@@H]1Cc2cc(O)ccc2[C@@H](c2c(F)cc(N3CCC4(CC3)CN(C(=O)CN3Cc5cc6c(cc5C3)C(=O)N(C3CCC(=O)NC3=O)C6=O)C4)cc2F)N1CC(F)F (stereo partly drawn) [E 41, 6-(2-(7-(4-((1S,3R)-2-(2,2-difluoroethyl)-6-hydroxy-3-methyl-1,2,3,4-tetrahydroisoquinolin-1-yl)-3,5-difluorophenyl)-2,7-diazaspiro[3.5]nonan-2-yl)-2-oxoethyl)-2-(2,6-dioxopiperidin-3-yl)-6,7-dihydropyrrolo[3,4-f]isoindole-1,3(2H,5H)-dione]
< 10 nM | C[C@@H]1Cc2c([nH]c3ccccc23)[C@@H](c2ccc(N3CCC(C(=O)N4CCC(N5Cc6cc7c(cc6C5)C(=O)N(C5CCC(=O)NC5=O)C7=O)CC4)CC3)cc2F)N1CC(F)F (stereo partly drawn) [E 302, 6-(1-(1-(4-((1R,3R)-2-(2,2-difluoroethyl)-3-methyl-2,3,4,9-tetrahydro-1H-pyrido[3,4-b]indol-1-yl)-3-fluorophenyl)piperidine-4-carbonyl)piperidin-4-yl)-2-(2,6-dioxopiperidin-3-yl)-6,7-dihydropyrrolo[3,4-f]isoindole-1,3(2H,5H)-dione]
> 100 nM | C[C@@H]1Cc2cc(O)ccc2[C@@H](c2c(F)cc(N3CC4(CCN(CC(=O)N5Cc6cc7c(cc6C5)C(=O)N(C5CCC(=O)NC5=O)C7=O)CC4)C3)cc2F)N1CC(C)(F)F (stereo partly drawn) [E 25, 6-(2-(2-(4-((1S,3R)-2-(2,2-difluoropropyl)-6-hydroxy-3-methyl-1,2,3,4-tetrahydroisoquinolin-1-yl)-3,5-difluorophenyl)-2,7-diazaspiro[3.5]nonan-7-yl)acetyl)-2-(2,6-dioxopiperidin-3-yl)-6,7-dihydropyrrolo[3,4-f]isoindole-1,3(2H,5H)-dione]

same assay, conditions: compounds 16 hours, Table A does not say whether T47D or MCF7, read-out: Potency (DC50)

DC50 | Compound
> 100 nM | C[C@@H]1Cc2cc(O)ccc2[C@@H](c2c(F)cc(C(=O)N3CC4(CCC(CN5Cc6cc7c(cc6C5)C(=O)N(C5CCC(=O)NC5=O)C7=O)CC4)C3)cc2F)N1CC(F)F (stereo partly drawn) [E 464, 6-((2-(4-((1S,3R)-2-(2,2-difluoroethyl)-6-hydroxy-3-methyl-1,2,3,4-tetrahydroisoquinolin-1-yl)-3,5-difluorobenzoyl)-2-azaspiro[3.5]nonan-7-yl)methyl)-2-(2,6-dioxopiperidin-3-yl)-6,7-dihydropyrrolo[3,4-f]isoindole-1,3(2H,5H)-dione]
10 to 100 nM | C[C@@H]1Cc2cc(O)ccc2[C@@H](c2ccc(N3CCC4(CCN(C(=O)CN5Cc6cc7c(cc6C5)C(=O)N(C5CCC(=O)NC5=O)C7=O)CC4)CC3)cc2)N1c1ccc(F)cc1 (stereo partly drawn) [E 462, 2-(2,6-dioxopiperidin-3-yl)-6-(2-(9-(4-((1R,3R)-2-(4-fluorophenyl)-6-hydroxy-3-methyl-1,2,3,4-tetrahydroisoquinolin-1-yl)phenyl)-3,9-diazaspiro[5.5]undecan-3-yl)-2-oxoethyl)-6,7-dihydropyrrolo[3,4-f]isoindole-1,3(2H,5H)-dione]
< 10 nM | C[C@@H]1Cc2cc(O)ccc2[C@@H](c2c(F)cc(OCC3CCC4(CC3)CN(C(=O)CN3Cc5cc6c(cc5C3)C(=O)N(C3CCC(=O)NC3=O)C6=O)C4)cc2F)N1CC(F)F (stereo partly drawn) [E 453, 6-(2-(7-((4-((1S,3R)-2-(2,2-difluoroethyl)-6-hydroxy-3-methyl-1,2,3,4-tetrahydroisoquinolin-1-yl)-3,5-difluorophenoxy)methyl)-2-azaspiro[3.5]nonan-2-yl)-2-oxoethyl)-2-(2,6-dioxopiperidin-3-yl)-6,7-dihydropyrrolo[3,4-f]isoindole-1,3(2H,5H)-dione]

From patent US20240190880A1 (THE REGENTS OF THE UNIVERSITY OF MICHIGAN, priority 2021, published 2024)
